For 45 compounds, logP and logD results are on record in the SangsterLogP compilation.

Assay in data set [1]: not given
This is another data set of the same source.

Assay in data set [2]: not given
The source holds these as a separate data set.

Assay in data set [3]: not given
The source holds these as a separate data set.

The nature of data set [4]: method code SF-AS, from DOI: 10.1248/cpb.39.458, PMID: 1829027. The settings on record: pH 7.0.
Data set [5] is described as follows: method code SF-AS, from DOI: 10.1016/s0021-9673(00)91570-x. The settings on record: pH 3.4.
Assay in data set [6]: not given
This is another data set of the same source.

Data set [7] can be described thus: method code SF-RC, from DOI: 10.1002/jlcr.1932. The note with it: pH 7.4.
Data set [8] in a line: method code SF, from DOI: 10.1021/jm049495j.s001, PMID: 15771458. The note with it: pH 12.0.
Assay in data set [9]: not given
The source holds these as a separate data set.

Data set [10] is described as follows: method code SF-RC, from DOI: 10.1016/s0969-8051(99)00046-3, PMID: 10628564. The note with it: pH 7.4.
Data set [11] is described as follows: method code SF-AS/IM, from DOI: 10.1002/jps.2600661205, PMID: 925928.
Assay in data set [12]: not given
The source holds these as a separate data set.

A short description of data set [13]: method code SF-AS, from DOI: 10.1213/00000539-199008000-00008, PMID: 2375517.
Data set [14] can be described thus: from Ammermann, E., Loecher, F., Lorenz, G., Janssen, B., Karbach, S., & Meyer, N. (1990). BAS 480 F - a new broad spectrum fungicide. In Brighton Crop Protection Conference, Pests and Diseases - 1990 …. The settings on record: pH 7.0.
A short description of data set [15]: method code SF-AS, from DOI: 10.1021/jm00099a010, PMID: 1433194. The note with it: pH 7.4.
A short description of data set [16]: method code SF-AS, from DOI: 10.1007/bf02273190.
A short description of data set [17]: method code SF-HPLC, from DOI: 10.1023/a:1007514121527, PMID: 10714601. The settings on record: pH 7.4.
The nature of data set [18]: method code SF-AS, from PMID: 872227. The note with it: pH 7.2.
Data set [19] can be described thus: method code SF-RC, from DOI: 10.1016/j.nucmedbio.2012.01.004, PMID: 22336372. The settings on record: pH 7.4.
Assay in data set [20]: not given
The source holds these as a separate data set.

For data set [21] the following is noted: pH 7.4.
The nature of data set [22]: method code SF-RC, from DOI: 10.1016/j.bmc.2005.04.014, PMID: 15911305. The note with it: pH 7.4.
Assay in data set [23]: not given
The source holds these as a separate data set.

Data set [24] is described as follows: method code SF-AS, from Zsuzsa, H.; Nora, K. (1979). Study on the partition coefficient of acetanilides. Nehezvegyp. Kut. Intez. Kozl., 8, 139-146.
Assay in data set [25]: not given
This is another data set of the same source.

Data set [26] is described as follows: method code SF-RC, from PMID: 14530489. The settings on record: pH 7.4.
A short description of data set [27]: method code SF-RC, from DOI: 10.1021/es00096a007.
A short description of data set [28]: method code SF-RC, from DOI: 10.1021/jm070025+, PMID: 17411026. The note with it: pH 7.4.
Assay in data set [29]: not given
The source holds these as a separate data set.

Assay in data set [30]: not given
This is another data set of the same source.

Assay in data set [31]: not given
The source holds these as a separate data set.

Data set [32] is described as follows: method code SF-AS, from PMID: 10944786. The note with it: pH 7.0.
Assay in data set [33]: not given
The source holds these as a separate data set.

Assay in data set [34]: not given
The source holds these as a separate data set.

The nature of data set [35]: method code SF-AS, from DOI: 10.1016/0378-5173(92)90099-n.
The nature of data set [36]: method code SF-AS, from DOI: 10.1016/s0928-0987(01)00170-1, PMID: 11500262. The settings on record: pH 12.5.
Data set [37] in a line: method code SF-AS, from DOI: 10.1021/jm00254a028, PMID: 4845386.
A short description of data set [38]: method code SF-AS, from PMID: 3449083.
The nature of data set [39]: method code SF-HPLC, from Hairsine, P. (1997). Direct measurement of partition coefficient by shake flask technique and gradient elution HPLC. Lab. Practice, 38(11)73-75.
Assay in data set [40]: not given
The source holds these as a separate data set.

Data set [41] can be described thus: method code SF-GLC, from DOI: 10.1556/jpc.23.2010.3.6.
The nature of data set [42]: method code SF-AS, from DOI: 10.1081/jlc-100100410. The settings on record: pH 4.0.
Data set [43] can be described thus: method code SF-LC/MS, from DOI: 10.1021/jm4008714, PMID: 23919803. The settings on record: pH 7.4.
Assay in data set [44]: not given
This is another data set of the same source.

By logP is commonly meant a log measure of how a compound divides between an organic and an aqueous phase. Lower therefore signals a more hydrophilic compound. Turning to `c1ccc(C2=NOC3COC(c4ccccc4)OCC23)cc1` (stereo not given), the logP turned out to be 3.42.
Compound `O=C1/C(=C/c2cccc(Cl)c2)CCCc2ccccc21` returned a logP in data set [1] of 5.22.
In [2], `Clc1ccc(COC(Cn2ccnc2)c2ccc(Cl)cc2Cl)c(Cl)c1` (stereo not given) yielded a logP of 5.81.
As for `COc1ccc(Sc2ccc(I)cc2N)c(CN(C)C)c1`, in [3], the logP came to 3.34.
What is called logD is the decadic logarithm of the distribution of all forms, ionised or not, between an organic phase and buffer at a given pH. Lower therefore signals lower lipophilicity. On to `CCCC(=O)OC[C@H]1O[C@@H](n2cc(F)c(=O)[nH]c2=O)C[C@@H]1OC(=O)CCC`, for which the logD in data set [4] stood at 1.9.
As to `COc1cc(CC(=O)O)ccc1OCC1CCCCC1`, the logD in data set [5] was determined as 3.35.
As for `CCCCCCCC(=O)N[C@@H]1C(=O)N2[C@@H]1SC(C)(C)[C@@H]2C(=O)O`, in [6], the logP was found to be 3.32.
In [7], `O=C(OCC1=CC(=O)c2ccccc2C1=O)c1ccc(F)cc1` showed a logD of 2.7.
The compound `c1ccc2c(c1)CCn1ccnc1C21CCNCC1` came in with a logD in [8] of 1.18.
Consider `Oc1ccc(C23CC4CC(CC(C4)C2)C3)cc1`, for which the logP in [9] stood at 5.46.
`CN1CCN(C(=O)OC2c3nccnc3C(=O)N2c2ccc(I)cn2)CC1` (stereo not given) registered a logD in [10] of 1.6.
`CC1(C)S[C@@H]2[C@H](NC(=O)COc3ccccc3)C(=O)N2[C@H]1C(=O)O` showed a logP in [11] of 1.95.
As for `O=C(O)c1cc(/N=N/c2ccc(S(=O)(=O)Nc3ccccn3)cc2)ccc1O`, in [12], the logP was -0.13.
Consider `CCCN1CCCC[C@H]1C(=O)Nc1c(C)cccc1C`, for which the lipophilicity (logP) in data set [13] was found to be 2.89.
In turn, `Fc1ccc([C@]2(Cn3cncn3)O[C@H]2c2ccccc2Cl)cc1` (stereo in doubt) came in with a logD in [14] of 3.44.
`CN1CCN(Cc2ccc(C(=O)c3csc(S(N)(=O)=O)c3)cc2)CC1`: in data set [15], the logD came out at 0.37.
In data set [16], `CCCCCCC(=O)N(C)c1ccc(S(=O)(=O)N(C)C)cc1` displayed a logP of 2.61.
For the compound `COc1cc2oc(=O)cc(CC(NC(C)=O)C(N)=O)c2cc1OC` (stereo not given), in data set [17], the logD is -0.13.
As for `CCCOc1ccc(NC(=O)OCCN2CCOCC2)c(C)c1`, the logD in data set [18] worked out at 2.21.
`C#CCN(CCF)c1ccc(S(=O)c2ccc([N+](=O)[O-])cc2)cc1` (stereo not given): the logD in data set [19] turned out to be 2.6.
In turn, `CC(Oc1ccccc1)C(=O)N[C@@H]1C(=O)N2[C@@H]1SC(C)(C)[C@@H]2C(=O)O` (stereo not given in full) displayed a lipophilicity (logP) in data set [20] of 2.19.
`CCCCSCS(=O)CC(CO)NC(=O)C=Cc1c(C)[nH]c(=O)[nH]c1=O` (stereo not given) showed a logD in data set [21] of 0.14.
Compound `Nc1nc(OCc2cccc(I)c2)c2ncn(C3CC(O)C(CO)O3)c2n1` (stereo not given) had a logD in data set [22] of 1.4.
Compound `CCCN(CCC)P(=O)(OC(C)CC)c1ccccc1` (stereo not given) came in with a logP in [23] of 4.13.
As for `CC(Cl)C(=O)N(CC(=O)Nc1ccccc1)c1ccccc1` (stereo not given), the logP in [24] amounted to 3.02.
For the compound `CC1C=COC1C(=O)Nc1cccc(-c2nc3ncccc3o2)c1` (stereo not given), the logP in data set [25] amounted to 2.9.
`CS(=O)(=O)c1ccc(-c2ccsc2-c2ccc(F)cc2)cc1`: in [26], the logD is 3.72.
Turning to `Nc1cc2c3ccccc3ccc2c2ccccc12`, the logP in data set [27] came out at 4.98.
For the compound `CN(C)c1ccc(/C=C/c2cnc(OCCO)c(I)c2)cc1`, the logD in data set [28] turned out to be 2.64.
As to `Cc1cc2c(s1)Nc1ccccc1N=C2N1CCN(C)CC1`, the logP in data set [29] turned out to be 3.
Consider `c1ccc2c(c1)Cc1c-2ccc2ccccc12`, for which the logP in data set [30] stood at 5.32.
For the compound `CN1CC[C@]23c4c5ccc(O)c4O[C@H]2C(=O)CC[C@@]3(O)[C@H]1C5`, in data set [31], the logP amounted to 0.67.
The compound `CCCCOc1cccc(NC(=O)OCN2CCCCC2)c1` had a logD in data set [32] of 2.97.
In data set [33], `CCCCCCCCCCCCCCOC(=O)C(C)O` (stereo not given) came in with a logP of 6.08.
For the compound `CCCCC(CC)COC(=O)c1ccc(N(C)C)cc1` (stereo not given), the logP in data set [34] was found to be 6.6.
`CCn1cc(C(=O)O)c(=O)c2cc(F)c(N3CCN(C)CC3)c(F)c21` showed a logP in data set [35] of 0.3.
In turn, `CN(C)CCC(c1ccccc1)c1ccccc1` registered a logD in data set [36] of 5.4.
In [37], `NC(=O)OC1c2ccccc2C2CCCCC2C1OC(N)=O` (stereo not given) returned a logP of 2.17.
`CN1C=CCC(C(=O)OC2CCC(NC(=O)N(CCCl)N=O)CC2)=C1` (stereo not given) gave a logP in [38] of 2.53.
As to `O=C(CCNNC(=O)c1ccncc1)NCc1ccccc1`, the logP in data set [39] is 0.83.
`COC1=CC(=NO)CC(C)C12Oc1c(Cl)c(OC)cc(OC)c1C2=O` (stereo not given) returned a logP in data set [40] of 2.31.
In turn, `CCCCCCCCCCCCCCCCO` returned a logP in data set [41] of 7.
With `CC(C)Oc1ccc(C(=O)NS(=O)(=O)c2ccc(N)cc2)cc1`, the logD in [42] is 1.21.
Take `Cn1c(=O)nc(-c2ccccc2)c2oc3ccccc3c21`: in [43], the logD came to 2.8.
In turn, `CCCCCCNC(=O)CNC(=O)OCc1ccccc1` had a logP in data set [44] of 3.7.
